Measured values from patent US8828985B2, “Carbamate and urea inhibitors of 11-beta-hydroxysteroid dehydrogenase 1” (Vitae Pharmaceuticals, Inc., priority 2008, dated 2014).
Read-outs that look alike come from different tables or passages of the source.

Target: human 11β-HSD1 (Homo sapiens, UniProt P28845)
Assay: biochemical
Details: for inhibition at 0.1 µM / inhibition at 0.111 µM: 1.5 h; for inhibition at 0.1 µM: read-out: Biological Test Example 2 Average % inhibition at 100 nm, at 100 nm; for IC50: Biological Test Example 2 IC50 Range, microsomes from CHO cells overexpressing human 11β-HSD1, SPA
[1] = read-out: Biological Test Example 2 Average % inhibition at 111 nm, at 111 nm

Chain of human 11β-HSD1 (P28845 whole entry): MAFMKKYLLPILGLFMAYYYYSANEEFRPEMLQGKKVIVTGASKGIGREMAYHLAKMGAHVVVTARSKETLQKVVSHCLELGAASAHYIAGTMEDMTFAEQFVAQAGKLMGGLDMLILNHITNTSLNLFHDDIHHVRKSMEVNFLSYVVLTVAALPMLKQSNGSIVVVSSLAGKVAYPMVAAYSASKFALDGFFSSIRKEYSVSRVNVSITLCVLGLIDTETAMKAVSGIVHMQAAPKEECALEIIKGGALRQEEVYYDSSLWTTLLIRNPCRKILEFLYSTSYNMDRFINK
Description: All reactions are carried out at room temperature in 96 well clear flexible PET Microbeta plates (PerkinElmer). […] The reaction is stopped by adding 50 μl of the SPA beads suspension containing 10 μM 18β-glycyrrhetinic acid, 5 mg/ml protein A coated YSi SPA beads (GE Healthcare) and 3.3 μg/ml of anti-cortisol antibody (East Coast Biologics) in Superblock buffer (Bio-Rad). The plates are then shaken for 120 minutes at room temperature, and the SPA signal corresponding to [^3H]cortisol is measured on a Microbeta plate reader.

SMILES | inhibition at 0.1 µM [%] | IC50 [nM] | inhibition at 0.111 µM [1] [%] | inhibition at 0.111 µM (read-out: Biological Test Example 2 Average % inhibition at 111 nm) [%]
N#Cc1ccc(N[C@@H]2CCN(C(=O)O[C@H]3C4CC5CC3C[C@](C(N)=O)(C5)C4)C2)nc1 [Example 35, (R)-(trans-1-carbamoyl-4-adamantyl) 3-(5-cyanopyridin-2-ylamino)pyrrolidine-1-carboxylate] | 101 | < 100 | – | –
CC1(Nc2ccc(C#N)cn2)CCN(C(=O)O[C@H]2C3CC4CC2C[C@](C(N)=O)(C4)C3)C1 (stereo partly drawn) [Example 69, (trans-1-carbamoyl-4-adamantyl) 3-(5-cyanopyridin-2-ylamino)-3-methylpyrrolidine-1-carboxylate] | 98.7 | < 100 | – | –
N#Cc1ccc(N[C@@H]2CCN(C(=O)O[C@H]3C[C@H]4CC[C@@H](C3)N4C(N)=O)C2)nc1 [Example 105, (3R)-8-carbamoyl-8-azabicyclo[3.2.1]octan-3-yl 3-(5-cyanopyridin-2-ylamino)pyrrolidine-1-carboxylate] | 14.8 | > 100 | – | –
N#Cc1ccc(N[C@H]2CCN(C(=O)O[C@H]3C4CC5CC3C[C@](C(N)=O)(C5)C4)C2)nc1 [Example 65, (S)-(trans-1-carbamoyl-4-adamantyl) 3-(5-cyanopyridin-2-ylamino)pyrrolidine-1-carboxylate] | 97.1 | < 100 | – | –
CC(C)OC(=O)N[C@@H]1CCN(C(=O)NC2C3CC4CC(C3)CC2C4)C1 (stereo partly drawn) [Example 49, (R)-isopropyl 1-((2-adamantyl)carbamoyl)pyrrolidin-3-ylcarbamate] | – | < 100 | 74.6 | –
CN(c1cccc(C(F)(F)F)n1)C1CCN(C(=O)OC2C3CC4CC2CC(C(N)=O)(C4)C3)C1 (stereo not drawn) [Example 45, (trans-1-carbamoyl-4-adamantyl) 3-(methyl(6-(trifluoromethyl)pyridin-2-yl)amino)pyrrolidine-1-carboxylate] | 97.7 | < 100 | – | –
N#Cc1cccnc1N[C@@H]1CCN(C(=O)O[C@H]2C3CC4CC2C[C@](C(N)=O)(C4)C3)C1 [Example 34, (R)-(trans-1-carbamoyl-4-adamantyl) 3-(3-cyanopyridin-2-ylamino)pyrrolidine-1-carboxylate] | 94.6 | < 100 | – | –
CC(C)(C)OC(=O)N(CCO)[C@@H]1CCN(C(=O)O[C@H]2C3CC4CC2C[C@](C(N)=O)(C4)C3)C1 [Example 28, (R)-(1-carbamoyl-4-adamantyl) 3-(tert-butoxycarbonyl(2-hydroxyethyl)amino)pyrrolidine-1-carboxylate] | – | < 100 | – | –
CC(C)COC(=O)N[C@@H]1CCN(C(=O)NC2C3CC4CC(C3)CC2C4)C1 (stereo partly drawn) [Example 50, (R)-isobutyl 1-((2-adamantyl)carbamoyl)pyrrolidin-3-ylcarbamate] | – | < 100 | 92.9 | –
CCOC(=O)C1(Nc2ccccc2)CCN(C(=O)NC2C3CC4CC(C3)CC2C4)CC1 (stereo not drawn) [Example 59, Ethyl 1-(2-adamantylcarbamoyl)-4-(phenylamino)piperidine-4-carboxylate] | – | 100 to 1000 | – | 47.5
N#Cc1cccnc1N[C@@H]1CCN(C(=O)O[C@H]2C3CC4CC2C[C@](O)(C4)C3)C1 [Example 80, (R)-(trans-1-hydroxy-4-adamantyl) 3-(3-cyanopyridin-2-ylamino)pyrrolidine-1-carboxylate] | – | < 100 | – | –
CN(c1ncccc1C(F)(F)F)C1CCN(C(=O)O[C@H]2C3CC4CC2C[C@](C(N)=O)(C4)C3)C1 (stereo partly drawn) [Example 44, (trans-1-carbamoyl-4-adamantyl) 3-(methyl(3-(trifluoromethyl)pyridin-2-yl)amino)pyrrolidine-1-carboxylate] | 97.2 | < 100 | – | –
N#Cc1cccnc1NC1CCN(C(=O)O[C@H]2C3CC4CC2C[C@](C(N)=O)(C4)C3)CC1 [Example 68, (1-carbamoyl-4-adamantyl) 4-(3-cyanopyridin-2-ylamino)piperidine-1-carboxylate] | 90.7 | < 100 | – | –
Cc1cc(N[C@@H]2CCN(C(=O)O[C@H]3C4CC5CC3C[C@](C(N)=O)(C5)C4)C2)nc(C)n1 [Example 33, (R)-(trans-1-carbamoyl-4-adamantyl) 3-(2,6-dimethylpyrimidin-4-ylamino)pyrrolidine-1-carboxylate] | 78.6 | < 100 | – | –

Continued, in another order:

inhibition at 0.1 µM [%] | IC50 [nM] | inhibition at 0.111 µM [1] [%] | SMILES | inhibition at 0.111 µM (read-out: Biological Test Example 2 Average % inhibition at 111 nm) [%]
95.2 | < 100 | – | NC(=O)C12CC3CC(C1)C(OC(=O)N1CC[C@@H](Nc4ccc(F)cn4)C1)C(C3)C2 (stereo partly drawn) [Example 115] | –
60.2 | < 100 | – | NC(=O)c1cnc(N[C@@H]2CCN(C(=O)O[C@H]3C4CC5CC3C[C@](O)(C5)C4)C2)c(Cl)c1 [Example 92, (R)-(trans-1-hydroxy-4-adamantyl) 3-(5-carbamoyl-3-chloropyridin-2-ylamino)pyrrolidine-1-carboxylate] | –
21.8 | > 100 | – | CN(C(=O)c1ccc(N[C@@H]2CCN(C(=O)O[C@H]3C4CC5CC3C[C@](O)(C5)C4)C2)nc1)C(C)(C)C [Example 99, (trans-1-hydroxy-4-adamantyl) 3-(5-(tert-butyl(methyl)carbamoyl)pyridin-2-ylamino)pyrrolidine-1-carboxylate] | –
90.6 | < 100 | – | O=C(O[C@H]1C2CC3CC1C[C@](O)(C3)C2)N1CC[C@@H](Nc2ccc3cc(Cl)ccc3n2)C1 [Example 95, (R)-(trans-1-hydroxy-4-adamantyl) 3-(6-chloroquinolin-2-ylamino)pyrrolidine-1-carboxylate] | –
101 | < 100 | – | N#Cc1cc(Cl)cnc1N[C@@H]1CCN(C(=O)O[C@H]2C3CC4CC2C[C@](O)(C4)C3)C1 [Example 86, (R)-(trans-1-hydroxy-4-adamantyl) 3-(5-chloro-3-cyanopyridin-2-ylamino)pyrrolidine-1-carboxylate] | –
50.1 | < 100 | – | NC(=O)c1cnc(N[C@@H]2CCN(C(=O)O[C@H]3C4CC5CC3C[C@](O)(C5)C4)C2)nc1 [Example 109, (R)-(trans-1-hydroxy-4-adamantyl) 3-(5-carbamoylpyrimidin-2-ylamino)pyrrolidine-1-carboxylate] | –
78.4 | < 100 | – | COC(=O)C12CC3CC(C1)C(OC(=O)N1CC[C@@H](Nc4ncccc4C#N)C1)C(C3)C2 (stereo partly drawn) [Example 70, (R)-(1-(methoxycarbonyl)-4-adamantyl) 3-(3-cyanopyridin-2-ylamino)pyrrolidine-1-carboxylate] | –
88.8 | < 100 | – | O=C(NC1CC1)c1ccc2nc(N[C@@H]3CCN(C(=O)O[C@H]4C5CC6CC4C[C@](O)(C6)C5)C3)sc2c1 [Example 103, (R)-(trans-1-hydroxy-4-adamantyl) 3-(6-(cyclopropylcarbamoyl)benzo[d]thiazol-2-ylamino)pyrrolidine-1-carboxylate] | –
97.3 | < 100 | 97.3 | N#Cc1cnc(N[C@@H]2CCN(C(=O)O[C@H]3C4CC5C[C@@H]3C[C@](C(N)=O)(C5)C4)C2)s1 [Example 72, (3R) (1-carbamoyl-4-adamantyl) 3-(5-cyanothiazol-2-ylamino)pyrrolidine-1-carboxylate] | –
97.9 | < 100 | 101 | N#Cc1ccc(N2CCC3CN(C(=O)O[C@H]4C5CC6CC4C[C@](C(N)=O)(C6)C5)CC32)nc1 (stereo partly drawn) [Example 76, (trans-1-carbamoyl-4-adamantyl) 1-(5-cyanopyridin-2-yl)hexahydropyrrolo[3,4-b]pyrrole-5(1H)-carboxylate] | –
101 | < 100 | – | O=C(O[C@H]1C2CC3CC1C[C@](O)(C3)C2)N1CC[C@@H](Nc2cnc3cc(Cl)ccc3n2)C1 [Example 96, (R)-(trans-1-hydroxy-4-adamantyl) 3-(6-chloroquinoxalin-2-ylamino)pyrrolidine-1-carboxylate] | –
84.2 | < 100 | 82.6 | NC(=O)C1CC2CCCC(C1)C2OC(=O)N1CC[C@@H](Nc2ccc(C(F)(F)F)cn2)C1 (stereo partly drawn) [Example 71, (3R)-3-carbamoylbicyclo[3.3.1]nonan-9-yl 3-(5-(trifluoromethyl)pyridin-2-ylamino)pyrrolidine-1-carboxylate] | –
91.1 | < 100 | – | O=C(O[C@H]1C2CC3CC1C[C@](O)(C3)C2)N1CC[C@@H](Nc2nc3ccc(Cl)cc3s2)C1 [Example 97, (R)-(trans-1-hydroxy-4-adamantyl) 3-(6-chlorobenzo[d]thiazol-2-ylamino)pyrrolidine-1-carboxylate] | –
91.1 | < 100 | – | CNC(=O)c1cc(Cl)cnc1N[C@@H]1CCN(C(=O)O[C@H]2C3CC4CC2C[C@](O)(C4)C3)C1 [Example 98, (R)-(trans-1-hydroxy-4-adamantyl) 3-(5-chloro-3-(methylcarbamoyl)pyridin-2-ylamino)pyrrolidine-1-carboxylate] | –
39.1 | > 100 | – | CN(C)C(=O)c1cccnc1N[C@@H]1CCN(C(=O)O[C@H]2C3CC4CC2C[C@](O)(C4)C3)C1 [Example 89, (R)-(trans-1-hydroxy-4-adamantyl) 3-(3-(dimethylcarbamoyl)pyridin-2-ylamino)pyrrolidine-1-carboxylate] | –
71.6 | < 100 | – | Cc1nc(N[C@@H]2CCN(C(=O)O[C@H]3C4CC5CC3C[C@](O)(C5)C4)C2)ccc1C#N [Example 84, (R)-(trans-1-hydroxy-4-adamantyl) 3-(5-cyano-6-methylpyridin-2-ylamino)pyrrolidine-1-carboxylate] | –
46.8 | < 100 | – | CN(C(=O)c1cccnc1N[C@@H]1CCN(C(=O)O[C@H]2C3CC4CC2C[C@](O)(C4)C3)C1)C(C)(C)C [Example 100, (trans-1-hydroxy-4-adamantyl) 3-(3-(tert-butyl(methyl)carbamoyl)pyridin-2-ylamino)pyrrolidine-1-carboxylate] | –
